This passage reports IC50 results from patent US8455497B2, “Inhibitors of aspartyl protease” (Vertex Pharmaceuticals Incorporated, priority 1999, dated 2013).

In the first assay the test system is HIV-1 (strain IIIB). The experiment in a line: Antiviral activity assay in MT4 cells (propidium iodide based). Format: cell-based. The settings on record: Human immunodeficiency virus 1, IIIB; wild type HIV-1 virus, MT4 cells; read-out: Wildtype virus - IC50. How it is done:
Antiviral Activity Assay in MT4 Cells
Aliquots of the test compounds were serially diluted in medium (RPMI 1640, 10% fetal calf serum (FCS), and gentamycin) in 96-well plates (Costar 3598) using a Cetus Pro/Pette. Exponentially growing MT4 cells were harvested and centrifuged at 1000 rpm for 10 min in a Jouan centrifuge (model CR 4 12). Cell pellets were resuspended in fresh medium (RPMI 1640, 20% FCS, 20% IL-2, and gentamycin) to a density of 5×10^5 cells/ml. Cell aliquots were infected by the addition of HIV-1 (strain IIIB) diluted to give a viral multiplicity of infection of 100×TCID50. A similar cell aliquot was diluted with medium to provide a mock-infected control. Cell infection was allowed to proceed for 1 hr at 37° in a tissue culture incubator with humidified 5% CO2 atmosphere. After the 1 hr incubation the virus/cell suspensions were diluted 6-fold with fresh medium, and 125 μl of the cell suspension was added to each well of the plate containing pre-diluted compound. Plates were then placed in a tissue culture incubator with humidified 5% CO2 for 5 days. At the end of the incubation period, 27 μl of 5% Nonidet-40 was added to each well of the incubation plate. After thorough mixing with a Costar multitip pipetter, 60 μl of the mixture was transferred to filter-bottomed 96-well plates. The plates were analyzed in an automated assay instrument (Screen Machine, Idexx Laboratories). The assay makes use of a propidium iodide dye to estimate the DNA content of each well.
The anti-viral potency in MT-4 cells of the compounds set forth in Tables 1 and 2 was determined using the above technique.
By IC50 is commonly meant the concentration at which inhibition is half-maximal. As to `CC(C)CN(C[C@@H](O)[C@H](Cc1ccc(OCCCCN)cc1)NC(=O)O[C@H]1CO[C@H]2OCC[C@H]21)S(=O)(=O)c1ccc2c(c1)OCO2` [Compound 224, (3R,3aS,6aR)-hexahydrofuro[2,3-b]furan-3-yl (1S,2R)-1-[4-(4-aminobutoxy)benzyl]-3-[(1,3-benzodioxol-5-ylsulfonyl) (isobutyl)amino]-2-hydroxypropylcarbamate], the IC50 was 10 to 100 nM.
Consider `CC(C)CN(C[C@@H](O)[C@H](Cc1ccc(OCCCC(N)=O)cc1)NC(=O)O[C@H]1CO[C@H]2OCC[C@H]21)S(=O)(=O)c1ccc2c(c1)OCO2` [Compound 285, (3R,3aS,6aR)-hexahydrofuro[2,3-b]furan-3-yl (1S,2R)-1-[4-(4-amino-4-oxobutoxy)benzyl]-3-[(1,3-benzodioxol-5-ylsulfonyl)(isobutyl)amino]-2-hydroxypropylcarbamate], for which the IC50 lay in the range of 10 to 100 nM.
Same read-out and setting: the value for `CC(C)(CCCC#N)CN(C[C@@H](O)[C@H](Cc1ccc(OCc2ccccc2)cc1)NC(=O)OC1COCOC1)S(=O)(=O)c1ccc2c(c1)OCO2` [Compound 306, 1,3-Dioxan-5-yl (1S,2R)-3-[(1,3-benzodioxol-5-ylsulfonyl)(5-cyano-2,2-dimethylpentyl)amino]-1-[4 (benzyloxy)benzyl]-2-hydroxypropylcarbamate] was 10 to 100 nM; that for `CC(C)(CCCC#N)CN(C[C@@H](O)[C@H](Cc1ccc(OCc2ccccc2)cc1)NC(=O)O[C@H]1CCOC1)S(=O)(=O)c1ccc2c(c1)OCO2` [Compound 307, (3S)-Tetrahydro-3-furanyl (1S,2R)-3-[(1,3-benzodioxol-5-ylsulfonyl)(5-cyano-2,2-dimethylpentyl)amino]-1-[4-(benzyloxy)benzyl]-2-hydroxypropylcarbamate] was 10 to 100 nM.
Consider `Cc1cccc(C)c1OCC(=O)N[C@@H](Cc1ccc(OCc2ccccc2)cc1)[C@H](O)CN(CC(C)C)S(=O)(=O)c1ccc2c(c1)OCO2` [Compound 325, N-{(1S,2R)-3-[(1,3-Benzodioxol-5-ylsulfonyl)(isobutyl)amino]-1-[4-(benzyloxy)benzyl]-2-hydroxypropyl}-2-(2,6-dimethylphenoxy)acetamide], for which the IC50 was 10 to 100 nM.

The assay is the same for the next values; noted with them: MT-4 cells, HIV-1 strain IIIB, 5 days; read-out: IC50 (Antiviral Activity of Compounds of the Invention).
Consider `CC(C)(CCC#N)CN(CC(O)C(Cc1ccc(OCc2ccccc2)cc1)NC(=O)OC1COC2OCCC12)S(=O)(=O)c1ccc2c(c1)OCO2` (stereo not shown) [Compound 72], for which the half-inhibitory concentration (IC50) lay in the range of 1 to 10 nM.
The same measure, in the same setting: as for `COCCN(CCOC)CCOc1ccc(CC(NC(=O)OC2COC3OCCC23)C(O)CN(CC(C)(C)CCC#N)S(=O)(=O)c2ccc3c(c2)OCO3)cc1` (stereo not shown) [Compound 73], the figure is 10 to 100 nM; as for `COCCN(CCOC)CCOc1ccc(CC(NC(=O)OC2COC3OCCC23)C(O)CN(CC(C)(C)CCC#N)S(=O)(=O)c2ccc(N)cc2)cc1` (stereo not shown) [Compound 74], more than 100 nM.

The same assay, now with this note: wild type HIV-1 virus, MT4 cells; read-out: Wildtype virus - IC50.
`CC(C)CN(C[C@@H](O)[C@H](Cc1ccc(OCc2ccsc2)cc1)NC(=O)O[C@H]1CO[C@H]2OCC[C@H]21)S(=O)(=O)c1ccc2c(c1)OCO2` [Compound 207]: the half-inhibitory concentration (IC50) was in the range of 1 to 10 nM.
Consider `CC(C)CN(C[C@@H](O)[C@H](Cc1ccc(OCCc2ccsc2)cc1)NC(=O)O[C@H]1CO[C@H]2OCC[C@H]21)S(=O)(=O)c1ccc2c(c1)OCO2` [Compound 208], for which the IC50 was in the range of 10 to 100 nM.
Still for that read-out and setting: the value for `CC(C)CN(C[C@@H](O)[C@H](Cc1ccc(OCCc2cccs2)cc1)NC(=O)O[C@H]1CO[C@H]2OCC[C@H]21)S(=O)(=O)c1ccc2c(c1)OCO2` [Compound 209] was 1 to 10 nM.
On the same count and under the same terms, as for `CC(C)CN(C[C@@H](O)[C@H](Cc1ccc(OCCc2ccncc2)cc1)NC(=O)O[C@H]1CO[C@H]2OCC[C@H]21)S(=O)(=O)c1ccc2c(c1)OCO2` [Compound 211], the figure is 1 to 10 nM; as for `Cc1ncsc1CCOc1ccc(C[C@H](NC(=O)O[C@H]2CO[C@H]3OCC[C@H]32)[C@H](O)CN(CC(C)C)S(=O)(=O)c2ccc3c(c2)OCO3)cc1` [Compound 213], 1 to 10 nM; as for `CC(C)CN(C[C@@H](O)[C@H](Cc1ccc(OCCCc2cccnc2)cc1)NC(=O)O[C@H]1CO[C@H]2OCC[C@H]21)S(=O)(=O)c1ccc2c(c1)OCO2` [Compound 214], 1 to 10 nM.
Same read-out and setting: the value for `CC(C)CN(C[C@@H](O)[C@H](Cc1ccc(OCCc2ccc(C#N)cc2)cc1)NC(=O)O[C@H]1CO[C@H]2OCC[C@H]21)S(=O)(=O)c1ccc2c(c1)OCO2` [Compound 215] was 1 to 10 nM; that for `CC(C)CN(C[C@@H](O)[C@H](Cc1ccc(OCCCC(F)(F)F)cc1)NC(=O)O[C@H]1CO[C@H]2OCC[C@H]21)S(=O)(=O)c1ccc2c(c1)OCO2` [Compound 216] was 1 to 10 nM; that for `CC(C)CN(C[C@@H](O)[C@H](Cc1ccc(OCCC(F)(F)F)cc1)NC(=O)O[C@H]1CO[C@H]2OCC[C@H]21)S(=O)(=O)c1ccc2c(c1)OCO2` [Compound 217] was 1 to 10 nM.
As for `CC(C)CC(=O)NCCCOc1ccc(C[C@H](NC(=O)O[C@H]2CO[C@H]3OCC[C@H]32)[C@H](O)CN(CC(C)C)S(=O)(=O)c2ccc3c(c2)OCO3)cc1` [Compound 231], the IC50 lay within 1 to 10 nM.
Regarding `CC(C)CN(C[C@@H](O)[C@H](Cc1ccc(OCCCNC(=O)C(C)(C)C)cc1)NC(=O)O[C@H]1CO[C@H]2OCC[C@H]21)S(=O)(=O)c1ccc2c(c1)OCO2` [Compound 232], the IC50 was 1 to 10 nM.
As for `CC(C)CN(C[C@@H](O)[C@H](Cc1ccc(OCCNC(=O)c2ccco2)cc1)NC(=O)O[C@H]1CO[C@H]2OCC[C@H]21)S(=O)(=O)c1ccc2c(c1)OCO2` [Compound 234], the IC50 was 1 to 10 nM.
Same read-out and setting: the value for `CCOC(=O)NCCOc1ccc(C[C@H](NC(=O)O[C@H]2CO[C@H]3OCC[C@H]32)[C@H](O)CN(CC(C)C)S(=O)(=O)c2ccc3c(c2)OCO3)cc1` [Compound 245] was 1 to 10 nM; that for `CCOC(=O)NCCCOc1ccc(C[C@H](NC(=O)O[C@H]2CO[C@H]3OCC[C@H]32)[C@H](O)CN(CC(C)C)S(=O)(=O)c2ccc3c(c2)OCO3)cc1` [Compound 246] was 1 to 10 nM.
Still for that read-out and setting: as for `CCOC(=O)NCCCCOc1ccc(C[C@H](NC(=O)O[C@H]2CO[C@H]3OCC[C@H]32)[C@H](O)CN(CC(C)C)S(=O)(=O)c2ccc3c(c2)OCO3)cc1` [Compound 247], the figure is 1 to 10 nM; as for `CC(C)CN(C[C@@H](O)[C@H](Cc1ccc(OCCNC(=O)OC(C)C)cc1)NC(=O)O[C@H]1CO[C@H]2OCC[C@H]21)S(=O)(=O)c1ccc2c(c1)OCO2` [Compound 248], 1 to 10 nM; as for `CC(C)CN(C[C@@H](O)[C@H](Cc1ccc(OCCCNC(=O)OC(C)C)cc1)NC(=O)O[C@H]1CO[C@H]2OCC[C@H]21)S(=O)(=O)c1ccc2c(c1)OCO2` [Compound 249], 1 to 10 nM.
On the same count and under the same terms, the value for `CC(C)CN(C[C@@H](O)[C@H](Cc1ccc(OCCCCNC(=O)OC(C)C)cc1)NC(=O)O[C@H]1CO[C@H]2OCC[C@H]21)S(=O)(=O)c1ccc2c(c1)OCO2` [Compound 250] was 1 to 10 nM.
Turning to `CC(C)CN(C[C@@H](O)[C@H](Cc1ccc(OCCCCNS(C)(=O)=O)cc1)NC(=O)O[C@H]1CO[C@H]2OCC[C@H]21)S(=O)(=O)c1ccc2c(c1)OCO2` [Compound 252], the half-inhibitory concentration (IC50) lay within 1 to 10 nM.
The same measure, in the same setting: the value for `CC(C)CN(C[C@@H](O)[C@H](Cc1ccc(OCCCNC(=O)N(C)C)cc1)NC(=O)O[C@H]1CO[C@H]2OCC[C@H]21)S(=O)(=O)c1ccc2c(c1)OCO2` [Compound 254] was 1 to 10 nM.
